We go through three molecules from US12441706B2, “Protein degradation agent compound preparation method and application” (SHANGHAI JEMINCARE PHARMACEUTICALS CO., LTD., priority 2019, dated 2025).

The target of assay [1] is T1, androgen receptor (Homo sapiens, UniProt P10275).
T1 construct: endogenous in cells; host or cells: VCaP cells
T1 sequence (P10275 1-920): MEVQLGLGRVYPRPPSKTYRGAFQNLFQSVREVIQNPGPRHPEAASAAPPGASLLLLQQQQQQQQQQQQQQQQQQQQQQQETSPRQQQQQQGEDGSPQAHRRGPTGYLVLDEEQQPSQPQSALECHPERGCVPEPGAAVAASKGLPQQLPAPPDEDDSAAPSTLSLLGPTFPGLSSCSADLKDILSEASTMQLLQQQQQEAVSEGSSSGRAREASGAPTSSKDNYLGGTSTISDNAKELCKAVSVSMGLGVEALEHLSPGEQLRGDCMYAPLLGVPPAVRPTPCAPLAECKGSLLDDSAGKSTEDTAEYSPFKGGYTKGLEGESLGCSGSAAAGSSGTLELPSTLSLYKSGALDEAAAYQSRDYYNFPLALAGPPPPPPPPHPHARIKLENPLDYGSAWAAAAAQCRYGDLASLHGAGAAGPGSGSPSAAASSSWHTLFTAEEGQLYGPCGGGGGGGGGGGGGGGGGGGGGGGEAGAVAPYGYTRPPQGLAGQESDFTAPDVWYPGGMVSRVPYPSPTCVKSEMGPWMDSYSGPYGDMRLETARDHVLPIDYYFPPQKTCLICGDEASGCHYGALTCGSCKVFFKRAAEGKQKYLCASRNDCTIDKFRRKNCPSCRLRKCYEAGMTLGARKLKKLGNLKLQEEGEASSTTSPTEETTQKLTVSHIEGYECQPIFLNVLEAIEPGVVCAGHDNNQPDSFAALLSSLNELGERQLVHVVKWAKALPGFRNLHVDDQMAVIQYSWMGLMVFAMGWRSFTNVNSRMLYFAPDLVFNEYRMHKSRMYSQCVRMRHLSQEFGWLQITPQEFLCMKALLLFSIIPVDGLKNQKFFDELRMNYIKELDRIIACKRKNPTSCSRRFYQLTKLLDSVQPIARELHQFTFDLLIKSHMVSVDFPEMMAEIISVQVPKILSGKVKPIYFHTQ
As to the kind of experiment: In-Cell-Western determination of androgen receptor degradation in VCaP cells. The format is cell-based. The settings on record: 24 hours treatment; for DC50: concentration for half of the maximal degradation of AR in VCaP cells; for Dmax: maximum degradation of AR in VCaP cells. As for the experimental part:
The determination evaluated the properties of the compounds in Vcap cells. Intracellular androgen receptor was determined by In-Cell-Western according to the determination steps described below.
In poly-D-Lysin pretreated 96-well cell culture plate (Corning 3599), Vcap cells were divided into […] volume, and inoculated with 50,000 cells/well in Vcap cell assay medium [DMEM containing phenol red (Gibco catalog number: 11995065); fetal bovine serum FBS (Gibco catalog number: 10099141C)]. Cells were cultured for at least two days.
1. First treated cells with compound. Compounds were gradient diluted with DMSO and cell culture medium, so that DMSO contained in cell culture plates was diluted to 0.5% —polypropylene plates were used according to the following protocol:
(1)(i) 200× stock plate in DMSO was prepared; (ii) 10 mM stock solution was diluted 1:4 with DMSO (10 μL stock solution+40 μL DMSO)=2000 μM, then entered into row 2; (iii) 1:4 (10 μL protac+40 μL DMSO) gradient dilution was performed in row 2 to row 9, and row 1 was reserved for 2000 μM reference compound and row 10 for DMSO. (iv) A total of 8 concentrations (final concentrations on the 200×plate were 2000 μM, 400 μM, 80 μM, etc.). (i) 3×stock solution in medium was prepared; (ii) 3 μL of 200× stock solution was transferred to 197 μL of culture medium (using 12-channel pipette, from line 1 to line 10), i.e. 3× stock solution plate. (iii) The stock solution plate was mixed evenly. (3) (i) The culture medium of Vcap cells was replaced with fresh culture medium, 100 μL volume culture medium. (ii) The well-mixed 3×stock solution was transferred to the cell culture plate (using 12-channel pipette, and 50 μL of stock solution was transferred from line 1 to line 10). (iii) Cells were cultured for 24 hours.
2. The expression level of intracellular androgen receptor after compound treatment was […] and determined according to the following method.
(1)(i) Equal volume of 8% paraformaldehyde was added to the cell culture plate for cell fixation. The fixing solution in the cell plate was discarded and washed three times with PBS. (ii) Triton solution (1:1000 dilution of the stock solution) was prepared. The solution in the cell plate was discarded, and 200 μL of Triton diluent was added into each well. (iii) 2×blocking solution (1:4 dilution of 10×blocking stock solution) was prepared. The solution in the cell plate was discarded, and 100 μL of 2×blocking solution was added into each well. (iv) Primary antibody solution (Androgen receptor Rabbbit mAb, Cell Signaling Technology catalog number: 5153; 1:1000 dilution) was prepared. The solution in the cell plate was discarded, 100 μL volume of primary antibody diluent was added to each well, and incubated at 4° C. overnight. (v) The primary antibody solution was discarded and the cell plate was washed with 1×Wash buffer. (vi) Secondary antibody solution (GOAT Antirabbit IgG (H+L), HRP, Thermo catalog number: 31460; 1:5000 dilution) was prepared, and 100 μL volume of secondary antibody dilution was added to each well for incubation. (vii) The secondary antibody solution in the cell plate was discarded and the cell plate was washed with 1× Wash buffer. (viii) TMB chromogenic solution (BD catalog number: 550534) was prepared, and 100 μL chromogenic solution was added into each well. (ix) 50 μL volume of stop solution (BD catalog number: 550534) was added to each well. (x) The absorption values at OD 450 nm and 570 nm were read though EnVision. (2)(i) Normalized analysis was performed on the number of cells in each well. The solution in the cell plate was discarded, and washed with wash buffer for three times. (ii) Janus dilution (1:3 dilution) was prepared. (iii) 50 μL volume diluent was added to each well for incubation. (iv) The solution in the plate was discarded and washed with deionized water. […]

Assay [2] has as its system LNcap FGC cells. As to the kind of experiment: Inhibition of proliferation of LNcap FGC cells (Cell Titer Glo, 6 days). The assay is classed as cell-based. The conditions noted are these: Homo sapiens, LNCaP, 144 h. On the procedure: Tumor cell line LNcap FGC (ATCC catalog number CRL-1740) was cultured in RPMI 1640 (Gibco catalog number 11875-093) and DMEM (Gibco catalog number. 11965-092) medium containing 10% FBS (Gibco catalog number 10099-141C), respectively.
LNcap FGC cells were inoculated in a 384-well plate (Perkin Elmer catalog number 6007460) at a cell density of 400 cells/well in a volume of 20 μL/well and incubated overnight in a carbon dioxide incubator (Thermo). The prepared compound solutions of different concentrations were added in a volume of 5 μL/well. The corresponding vehicle control was set at the same time. After being cultured in the incubator for 6 days, the cell plate and the contents were equilibrated to room temperature, and 25 μL of Cell Titer Glor (Promega catalog number G7573) was added to each well, shook and mixed well, incubated in dark for 10-30 minutes, and the signal values were detected with Envision microplate reader (PerkinElmer).
The percentage inhibition rate of compound-treated wells was calculated from the vehicle control wells on the plate, and the percentage inhibition rate data corresponding to different concentrations were fitted by GraphPad prism, and the IC50 values were calculated by 4-parameter nonlinear logic formula.
In general terms: Cellular ATP, detected with luciferase, serves as a proxy for viable cell number.

Broadly, the DC50 is the midpoint of the concentration-degradation curve. By Dmax is commonly meant the largest share of the target that was removed. A low value points to a partial loss of target. What is called IC50 is the concentration needed to halve the response being measured. A low value points to higher potency. In assay [1], `CC1(C)C(=O)N(c2ccc(C#N)c(Cl)c2)c2ccc(-c3ccc(N4CC(CN5CCN(c6ccc7c(c6)C(=O)N(C6CCC(=O)NC6=O)C7=O)CC5)C4)cc3)cc21` (stereo not drawn) [Compound 1] displayed a DC50 of 35 nM and a Dmax of 68%. Further, in assay [2], the Emax was found to be 91% and half-maximal inhibition (IC50) was put at 66.1 nM.

In assay [1], `CC1(C)C(=O)N(c2ccc(C#N)c(C(F)(F)F)c2)c2ccc(-c3ccc(N4CC(CN5CCN(c6ccc7c(c6)C(=O)N(C6CCC(=O)NC6=O)C7=O)CC5)C4)cc3)cc21` (stereo not drawn) [Compound 3] displayed a DC50 of 76 nM and a Dmax of 60%. In assay [2], this molecule yielded an Emax of 93% and an IC50 of 54.8 nM.

In assay [1], `CC1(C)C(=O)N(c2ccc(C#N)c(Cl)c2)c2ccc(-c3ccc(N4CC(CN5CCN(c6ccc7c(c6)C(=O)N(C6CCC(=O)NC6=O)C7=O)CC5)C4)nc3F)cc21` (stereo not drawn) [Compound 14] registered a DC50 of 94 nM and a Dmax of 85%. In assay [2], this molecule registered an Emax of 100% and an IC50 of 60.6 nM.
